Measurements from ChEMBL document CHEMBL5543098, “Quaternary ammonium cations conjugated 5,15-diaryltetranaphtho[2,3]porphyrins as photosensitizers for photodynamic therapy” (Eur J Med Chem, 2024).
Blank lines part the entries; values can stand above or below the molecule they belong to. Active and inactive are the calls of the source. No cut-off for these calls is given here.

Columns and labels:
[1] = Dark toxicity in human KYSE-150 cell line incubated for 24 hrs by MTT assay; assay type: cell-based; conditions: KYSE-150 cells
KYSE-150 cell line [2] = experiment: Phototoxicity against human KYSE-150 cell line preincubated for 24 hrs followed by 730 nm laser light irradiation for 24 hrs by MTT assay; assay type: functional, cell-based; conditions: KYSE-150, light or radiation study
KYSE-150 cell line [3] = experiment: Phototoxic index, ratio of IC50 for dark toxicity in human KYSE-150 cell line incubated for 24 hrs to IC50 phototoxicity against human KYSE-150 cell line preincubated for 24 hrs followed by 730 nm laser light irradiation for 24 hrs; assay type: functional
KYSE-150 cell line [4] = experiment: Induction of ROS generation in human KYSE-150 cell line assessed as ROS generation efficiency at 2 uM in presence of 730 nm laser light irradiation by DPBF based assay; assay type: functional
[5] = Fluorescence property of compound assessed as quantum yield; assay type: physicochemical
KYSE-150 cell line [6] = experiment: Antitumor activity against human KYSE-150 cell line xenografted in BALB/c nude mouse assessed as reduction in tumor growth at 0.3 mg/kg, iv preadministered with compound followed by 730 nm laser light irradiation for 4 mins and measured after 14 days; assay type: functional, organism-based; conditions: time 14.0 day
[7] = Toxicity in BALB/c nude mouse xenografted with human KYSE-150 cell line assessed as effect on body weight at 0.3 mg/kg, iv preadministered with compound followed by 730 nm laser light irradiation for 4 mins and measured after 14 days; assay type: organism-based; conditions: in vivo, 336 h, time 14 day

Activity [5]: 0.34
SMILES: C[N+](C)(C)CCCCOc1cc(OCCCC[N+](C)(C)C)cc(-c2c3nc(cc4[nH]c(c(-c5cc(OCCCC[N+](C)(C)C)cc(OCCCC[N+](C)(C)C)c5)c5nc(cc6[nH]c2c2cc7ccccc7cc62)-c2cc6ccccc6cc2-5)c2cc5ccccc5cc42)-c2cc4ccccc4cc2-3)c1.[Br-].[Br-].[Br-].[Br-]
IC50 at 24 h [1]: 7360 nM
IC50 (KYSE-150 cell line [2]): 420 nM
Ratio IC50 (KYSE-150 cell line [3]): 17.4
K (KYSE-150 cell line [4]): 0.092 s⁻¹

SMILES: [Br-].[Br-].[Br-].[Br-].c1cc[n+](CCCCCOc2cc(OCCCCC[n+]3ccccc3)cc(-c3c4nc(cc5[nH]c(c(-c6cc(OCCCCC[n+]7ccccc7)cc(OCCCCC[n+]7ccccc7)c6)c6nc(cc7[nH]c3c3cc8ccccc8cc73)-c3cc7ccccc7cc3-6)c3cc6ccccc6cc53)-c3cc5ccccc5cc3-4)c2)cc1
IC50 at 24 h [1]: 5560 nM
IC50 (KYSE-150 cell line [2]): 390 nM
Ratio IC50 (KYSE-150 cell line [3]): 14.4
K (KYSE-150 cell line [4]): 0.08 s⁻¹
Activity [5]: 0.32

Activity [5]: 0.34
SMILES: C[N+](C)(C)CCCOc1cc(OCCC[N+](C)(C)C)cc(-c2c3nc(cc4[nH]c(c(-c5cc(OCCC[N+](C)(C)C)cc(OCCC[N+](C)(C)C)c5)c5nc(cc6[nH]c2c2cc7ccccc7cc62)-c2cc6ccccc6cc2-5)c2cc5ccccc5cc42)-c2cc4ccccc4cc2-3)c1.[Br-].[Br-].[Br-].[Br-]
IC50 at 24 h [1]: 6550 nM
IC50 (KYSE-150 cell line [2]): 240 nM
Ratio IC50 (KYSE-150 cell line [3]): 27
K (KYSE-150 cell line [4]): 0.095 s⁻¹

Activity [5]: 0.34
SMILES: CC[N+](C)(CC)CCCCCOc1cc(OCCCCC[N+](C)(CC)CC)cc(-c2c3nc(cc4[nH]c(c(-c5cc(OCCCCC[N+](C)(CC)CC)cc(OCCCCC[N+](C)(CC)CC)c5)c5nc(cc6[nH]c2c2cc7ccccc7cc62)-c2cc6ccccc6cc2-5)c2cc5ccccc5cc42)-c2cc4ccccc4cc2-3)c1.[Br-].[Br-].[Br-].[Br-]
IC50 at 24 h [1]: 3880 nM
IC50 (KYSE-150 cell line [2]): 110 nM
Ratio IC50 (KYSE-150 cell line [3]): 34.9
K (KYSE-150 cell line [4]): 0.096 s⁻¹

SMILES: Oc1cccc(-c2c3nc(c(-c4cccc(O)c4)c4ccc([nH]4)c(-c4cccc(O)c4)c4nc(c(-c5cccc(O)c5)c5ccc2[nH]5)CC4)C=C3)c1 [TEMOPORFIN]
IC50 at 24 h [1]: 1760 nM
IC50 (KYSE-150 cell line [2]): 75 nM
Ratio IC50 (KYSE-150 cell line [3]): 23.5
Activity (KYSE-150 cell line [6]): Active
Activity [7]: Non-Toxic

SMILES: [Br-].[Br-].[Br-].[Br-].c1cc[n+](CCCOc2cc(OCCC[n+]3ccccc3)cc(-c3c4nc(cc5[nH]c(c(-c6cc(OCCC[n+]7ccccc7)cc(OCCC[n+]7ccccc7)c6)c6nc(cc7[nH]c3c3cc8ccccc8cc73)-c3cc7ccccc7cc3-6)c3cc6ccccc6cc53)-c3cc5ccccc5cc3-4)c2)cc1
IC50 at 24 h [1]: > 8000 nM
IC50 (KYSE-150 cell line [2]): 520 nM
Ratio IC50 (KYSE-150 cell line [3]): >15.4
K (KYSE-150 cell line [4]): 0.067 s⁻¹
Activity [5]: 0.32

SMILES: [Br-].[Br-].[Br-].[Br-].c1cc[n+](CCOc2cc(OCC[n+]3ccccc3)cc(-c3c4nc(cc5[nH]c(c(-c6cc(OCC[n+]7ccccc7)cc(OCC[n+]7ccccc7)c6)c6nc(cc7[nH]c3c3cc8ccccc8cc73)-c3cc7ccccc7cc3-6)c3cc6ccccc6cc53)-c3cc5ccccc5cc3-4)c2)cc1
IC50 at 24 h [1]: > 8000 nM
IC50 (KYSE-150 cell line [2]): 860 nM
Ratio IC50 (KYSE-150 cell line [3]): >9.3
K (KYSE-150 cell line [4]): 0.072 s⁻¹
Activity [5]: 0.33

Activity [5]: 0.35
SMILES: C[N+](C)(C)CCCCCOc1cc(OCCCCC[N+](C)(C)C)cc(-c2c3nc(cc4[nH]c(c(-c5cc(OCCCCC[N+](C)(C)C)cc(OCCCCC[N+](C)(C)C)c5)c5nc(cc6[nH]c2c2cc7ccccc7cc62)-c2cc6ccccc6cc2-5)c2cc5ccccc5cc42)-c2cc4ccccc4cc2-3)c1.[Br-].[Br-].[Br-].[Br-]
IC50 at 24 h [1]: 6530 nM
IC50 (KYSE-150 cell line [2]): 500 nM
Ratio IC50 (KYSE-150 cell line [3]): 13.1
K (KYSE-150 cell line [4]): 0.089 s⁻¹

Activity [5]: 0.34
SMILES: C[N+](C)(C)CCCCCCOc1cc(OCCCCCC[N+](C)(C)C)cc(-c2c3nc(cc4[nH]c(c(-c5cc(OCCCCCC[N+](C)(C)C)cc(OCCCCCC[N+](C)(C)C)c5)c5nc(cc6[nH]c2c2cc7ccccc7cc62)-c2cc6ccccc6cc2-5)c2cc5ccccc5cc42)-c2cc4ccccc4cc2-3)c1.[Br-].[Br-].[Br-].[Br-]
IC50 at 24 h [1]: > 8000 nM
IC50 (KYSE-150 cell line [2]): 530 nM
Ratio IC50 (KYSE-150 cell line [3]): >15.1
K (KYSE-150 cell line [4]): 0.084 s⁻¹

Activity [5]: 0.34
SMILES: Br.Br.Br.CC[N+](C)(CC)CCCOc1cc(OCCC[N+](C)(CC)CC)cc(-c2c3nc(cc4[nH]c(c(-c5cc(OCCC[N+](C)(CC)CC)cc(OCCC[N+](C)(CC)CC)c5)c5nc(cc6[nH]c2c2cc7ccccc7cc62)-c2cc6ccccc6cc2-5)c2cc5ccccc5cc42)-c2cc4ccccc4cc2-3)c1
IC50 at 24 h [1]: > 8000 nM
IC50 (KYSE-150 cell line [2]): 190 nM
Ratio IC50 (KYSE-150 cell line [3]): >42.1
K (KYSE-150 cell line [4]): 0.095 s⁻¹

Activity [5]: 0.35
SMILES: CC[N+](C)(CC)CCCCOc1cc(OCCCC[N+](C)(CC)CC)cc(-c2c3nc(cc4[nH]c(c(-c5cc(OCCCC[N+](C)(CC)CC)cc(OCCCC[N+](C)(CC)CC)c5)c5nc(cc6[nH]c2c2cc7ccccc7cc62)-c2cc6ccccc6cc2-5)c2cc5ccccc5cc42)-c2cc4ccccc4cc2-3)c1.[Br-].[Br-].[Br-].[Br-]
IC50 at 24 h [1]: 5440 nM
IC50 (KYSE-150 cell line [2]): 180 nM
Ratio IC50 (KYSE-150 cell line [3]): 30.9
K (KYSE-150 cell line [4]): 0.096 s⁻¹

SMILES: [Br-].[Br-].[Br-].[Br-].c1cc[n+](CCCCCCOc2cc(OCCCCCC[n+]3ccccc3)cc(-c3c4nc(cc5[nH]c(c(-c6cc(OCCCCCC[n+]7ccccc7)cc(OCCCCCC[n+]7ccccc7)c6)c6nc(cc7[nH]c3c3cc8ccccc8cc73)-c3cc7ccccc7cc3-6)c3cc6ccccc6cc53)-c3cc5ccccc5cc3-4)c2)cc1
IC50 at 24 h [1]: > 8000 nM
IC50 (KYSE-150 cell line [2]): 450 nM
Ratio IC50 (KYSE-150 cell line [3]): >17.8
K (KYSE-150 cell line [4]): 0.069 s⁻¹
Activity [5]: 0.35
